Reference: patent publication US20120122860A1, “SOLID FORMS OF SULFONAMIDES AND AMINO ACIDS” (Plexxikon, Inc., priority 2009, published 2012)

How the values were obtained:
[1] = Polymorph stability of P-1167 forms 1 and 2; assay type: physicochemical; details: P-1167 form 1 versus form 2
From the text: Propane-1-sulfonic acid {3-[5-(4-chloro-phenyl)-1H-pyrrolo[2,3-b]pyridine-3-carbonyl]-2,4-difluoro-phenyl}-amide (P-1167) may be prepared according to methods known in the art, for example, using methods described in U.S. patent application Ser. No. 11/473,347 (see also, PCT publication WO2007002433), the disclosure of which is hereby incorporated by reference. Compound P-1167 can exist in polymorphic forms, for example as polymorphic forms 1 or 2, where such polymorphic forms may be isolated as the substantially pure polymorph. The desired polymorphic form may be prepared, for example, by using appropriate crystallization conditions. For example, Form 1 was isolated by recrystallization from acetone/absolute ethanol (e.g. 1:1 to 5:1, preferably 2:1 by volume). […] The substantially pure isolated polymorphic forms were characterized by X-Ray Powder Diffraction (XRPD), differential scanning calorimetry (DSC) and infrared spectroscopy.

[2] = Rat PK study of P-1496 free base, arginine and lysine complex; assay type: in vivo, Sprague-Dawley rats; design: AUC∞/dose: unit not given here; details: for AUC∞/dose / Cmax/dose: Table 10B, rats; for biopharmaceutical properties, comparison in words: rat PK, relative to P-1496 free base
Method: A PK study was carried out in Sprague-Dawley rats on the arginine or lysine complex of propane-1-sulfonic acid {2,4-difluoro-3-[5-(2-methoxy-pyrimidin-5-yl)-1H-pyrrolo[2,3-b]pyridine-3-carbonyl]-phenyl}-amide P-1496 (Murigenics, Berkeley, Calif.), dosing via […], with sampling of approximately 250 μL of blood via jugular veing in Lithium heparin tubes at 30 minutes, 1, 3, 6, 8, 12, 24, 36 and 48 hours. Blood samples were centrifuged at 4° C. for 10 minutes at RCF of 1,000, plasma was stored at […] and shipped frozen for analytical analysis (Integrated Analytical Solutions, Inc., Berkeley, Calif.).
Solid formulations were taken up in PEG400:water at 200 mg/cc for free base, arginine, and lysine complexes, and also at 400 mg/cc for lysine complex and dosed by oral gavage 10 mL/kg to provide the P-1496 doses indicated in Table 10B.

B-Raf V600E = B-Raf V600E (Homo sapiens, UniProt P15056, V600E); experiment: Kinase activity assay, B-Raf V600E; assay type: biochemical; details: read-out: activity toward kinase B-Raf V600E, IC50
Fms = Fms (Homo sapiens, UniProt P07333); experiment: Kinase activity assay, Fms
Kdr = Kdr (Homo sapiens, UniProt P35968); experiment: Kinase activity assay, Kdr
Kit = Kit (Homo sapiens, UniProt P10721); experiment: Kinase activity assay, Kit
Src = Src (Homo sapiens, UniProt P12931); experiment: Kinase activity assay, Src
PI3Kα = PI3Kα (Homo sapiens, UniProt P42336); experiment: Kinase activity assay, PI3Kα
PI3Kδ = PI3Kδ (Homo sapiens, UniProt O00329); experiment: Kinase activity assay, PI3Kδ
B-Raf = B-Raf (Homo sapiens, UniProt P15056); experiment: Kinase activity assay, B-Raf; assay type: biochemical; details: read-out: activity toward kinase B-Raf, IC50
PI3Kγ = PI3Kγ (Homo sapiens, UniProt P48736); experiment: Kinase activity assay, PI3Kγ
A-Raf = biological target: T1, A-Raf (Homo sapiens, UniProt P10398); experiment: Kinase activity assay, A-Raf
T1 sequence (P10398 1-606): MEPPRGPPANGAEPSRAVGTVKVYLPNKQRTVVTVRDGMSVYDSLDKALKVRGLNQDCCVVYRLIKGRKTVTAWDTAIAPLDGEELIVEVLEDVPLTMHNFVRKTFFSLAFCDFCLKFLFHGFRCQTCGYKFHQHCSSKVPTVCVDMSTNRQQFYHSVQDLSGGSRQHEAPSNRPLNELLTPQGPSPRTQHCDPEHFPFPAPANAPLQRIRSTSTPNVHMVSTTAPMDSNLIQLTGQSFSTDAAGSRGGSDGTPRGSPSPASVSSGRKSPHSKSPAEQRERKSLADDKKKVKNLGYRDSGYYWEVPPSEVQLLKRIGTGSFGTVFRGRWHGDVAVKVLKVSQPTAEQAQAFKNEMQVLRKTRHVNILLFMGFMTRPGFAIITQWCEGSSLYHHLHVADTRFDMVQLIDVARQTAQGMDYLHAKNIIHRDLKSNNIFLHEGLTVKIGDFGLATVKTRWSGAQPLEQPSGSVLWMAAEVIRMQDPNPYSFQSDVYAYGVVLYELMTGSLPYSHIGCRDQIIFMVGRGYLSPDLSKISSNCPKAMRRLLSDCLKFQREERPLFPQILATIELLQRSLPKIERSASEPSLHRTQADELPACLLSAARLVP

C-Raf = C-Raf (Homo sapiens, UniProt P04049); experiment: Kinase activity assay, C-Raf
MAP4K4 = MAP4K4 (Homo sapiens, UniProt O95819); experiment: Kinase activity assay, MAP4K4
TrkA = TrkA (Homo sapiens, UniProt P04629); experiment: Kinase activity assay, TrkA
[3] = Intrinsic dissolution rate in simulated gastric fluid (SGF) without enzyme; assay type: physicochemical; details: pellet, 254 nm
Method: (§1) The intrinsic dissolution rate of a similarly prepared substantially amorphous arginine complex of P-1167 was compared to that of the form 2 polymorph in simulated gastric fluid (SGF) without enzyme and in simulated intestinal fluid (SIF). A pellet of test sample was dissolved in the appropriate fluid, and the UV absorbance as a function of time was measured at 254 nm (SGF) or 310 nm (SIF) and plotted. […] As such, significant improvement of dissolution of the arginine complex is shown, which is likely to be improved further by processing the complex to a completely amorphous form.

[4] = Intrinsic dissolution rate in simulated intestinal fluid (SIF); assay type: physicochemical; details: pellet, 310 nm, versus form 2 polymorph free base
Method: as §1

[5] = dose 100, in PEG400:water by oral gavage 10 mL/kg
[6] = dose 200, in PEG400:water by oral gavage 10 mL/kg

Sequence of B-Raf V600E (P15056 whole entry V600E): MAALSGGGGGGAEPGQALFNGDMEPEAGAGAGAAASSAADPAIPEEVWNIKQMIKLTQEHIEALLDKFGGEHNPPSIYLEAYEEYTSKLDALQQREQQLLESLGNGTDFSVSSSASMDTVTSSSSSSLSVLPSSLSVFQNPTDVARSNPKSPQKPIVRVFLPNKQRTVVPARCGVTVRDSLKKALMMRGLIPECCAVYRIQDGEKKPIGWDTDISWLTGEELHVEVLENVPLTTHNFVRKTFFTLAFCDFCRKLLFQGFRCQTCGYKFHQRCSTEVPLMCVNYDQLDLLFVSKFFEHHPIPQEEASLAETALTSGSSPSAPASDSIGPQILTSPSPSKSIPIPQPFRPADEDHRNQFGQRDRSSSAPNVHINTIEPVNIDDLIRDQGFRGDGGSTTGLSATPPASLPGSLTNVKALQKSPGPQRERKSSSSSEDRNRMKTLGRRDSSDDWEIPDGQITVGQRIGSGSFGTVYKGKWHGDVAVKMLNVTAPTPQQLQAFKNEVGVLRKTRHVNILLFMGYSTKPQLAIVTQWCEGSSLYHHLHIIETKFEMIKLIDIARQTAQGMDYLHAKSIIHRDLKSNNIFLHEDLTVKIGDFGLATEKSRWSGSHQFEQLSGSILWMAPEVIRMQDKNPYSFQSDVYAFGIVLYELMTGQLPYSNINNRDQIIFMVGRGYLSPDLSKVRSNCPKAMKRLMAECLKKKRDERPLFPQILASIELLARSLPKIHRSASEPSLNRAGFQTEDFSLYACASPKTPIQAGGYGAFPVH
Sequence of PI3Kα (P42336 whole entry): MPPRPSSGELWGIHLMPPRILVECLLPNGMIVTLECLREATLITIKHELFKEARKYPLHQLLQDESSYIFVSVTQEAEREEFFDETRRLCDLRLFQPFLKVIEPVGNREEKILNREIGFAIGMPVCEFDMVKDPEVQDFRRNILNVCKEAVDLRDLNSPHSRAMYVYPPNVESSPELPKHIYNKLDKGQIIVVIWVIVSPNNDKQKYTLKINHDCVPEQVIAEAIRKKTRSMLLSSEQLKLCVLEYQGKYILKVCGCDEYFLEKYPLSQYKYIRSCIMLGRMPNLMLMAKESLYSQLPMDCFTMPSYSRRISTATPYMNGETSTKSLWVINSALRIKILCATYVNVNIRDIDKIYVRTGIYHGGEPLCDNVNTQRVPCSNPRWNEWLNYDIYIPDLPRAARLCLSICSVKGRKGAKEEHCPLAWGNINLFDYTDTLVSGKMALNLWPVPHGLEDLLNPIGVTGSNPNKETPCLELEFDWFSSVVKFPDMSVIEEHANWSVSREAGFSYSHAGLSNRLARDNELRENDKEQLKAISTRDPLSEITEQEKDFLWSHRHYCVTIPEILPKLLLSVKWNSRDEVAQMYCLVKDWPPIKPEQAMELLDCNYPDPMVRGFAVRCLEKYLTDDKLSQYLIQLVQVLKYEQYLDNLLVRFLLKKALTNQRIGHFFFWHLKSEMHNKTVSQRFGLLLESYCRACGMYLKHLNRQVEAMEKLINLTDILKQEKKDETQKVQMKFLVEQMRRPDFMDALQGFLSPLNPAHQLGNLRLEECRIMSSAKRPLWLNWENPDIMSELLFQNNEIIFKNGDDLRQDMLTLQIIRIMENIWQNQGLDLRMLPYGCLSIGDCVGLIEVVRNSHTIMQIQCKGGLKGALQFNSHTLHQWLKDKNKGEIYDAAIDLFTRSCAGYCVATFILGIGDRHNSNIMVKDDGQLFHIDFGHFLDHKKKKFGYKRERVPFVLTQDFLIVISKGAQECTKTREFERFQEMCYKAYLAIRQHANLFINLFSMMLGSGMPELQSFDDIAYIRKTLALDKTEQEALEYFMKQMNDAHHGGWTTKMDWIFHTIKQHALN
Sequence of PI3Kα (P27986 whole entry partner): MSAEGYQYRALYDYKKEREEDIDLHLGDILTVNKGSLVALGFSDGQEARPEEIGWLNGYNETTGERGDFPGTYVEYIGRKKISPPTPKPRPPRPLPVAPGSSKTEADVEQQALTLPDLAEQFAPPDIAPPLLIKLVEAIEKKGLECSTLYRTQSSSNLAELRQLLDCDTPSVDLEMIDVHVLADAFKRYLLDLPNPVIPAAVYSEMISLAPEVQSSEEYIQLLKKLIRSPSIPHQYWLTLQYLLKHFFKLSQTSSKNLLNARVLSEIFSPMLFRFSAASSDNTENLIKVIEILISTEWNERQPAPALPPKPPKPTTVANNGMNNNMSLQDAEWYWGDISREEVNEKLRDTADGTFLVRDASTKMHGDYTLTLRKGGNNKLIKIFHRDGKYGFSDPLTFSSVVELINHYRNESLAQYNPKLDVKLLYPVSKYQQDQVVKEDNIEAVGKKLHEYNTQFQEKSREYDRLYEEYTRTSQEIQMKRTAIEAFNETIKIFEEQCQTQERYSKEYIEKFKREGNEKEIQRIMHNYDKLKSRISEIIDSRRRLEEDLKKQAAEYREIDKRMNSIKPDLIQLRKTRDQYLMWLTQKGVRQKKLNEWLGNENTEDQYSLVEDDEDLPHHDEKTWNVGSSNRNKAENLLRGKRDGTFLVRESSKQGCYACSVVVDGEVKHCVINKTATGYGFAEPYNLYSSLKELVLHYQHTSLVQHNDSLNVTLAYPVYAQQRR
Sequence of Kdr (P35968 20-1356): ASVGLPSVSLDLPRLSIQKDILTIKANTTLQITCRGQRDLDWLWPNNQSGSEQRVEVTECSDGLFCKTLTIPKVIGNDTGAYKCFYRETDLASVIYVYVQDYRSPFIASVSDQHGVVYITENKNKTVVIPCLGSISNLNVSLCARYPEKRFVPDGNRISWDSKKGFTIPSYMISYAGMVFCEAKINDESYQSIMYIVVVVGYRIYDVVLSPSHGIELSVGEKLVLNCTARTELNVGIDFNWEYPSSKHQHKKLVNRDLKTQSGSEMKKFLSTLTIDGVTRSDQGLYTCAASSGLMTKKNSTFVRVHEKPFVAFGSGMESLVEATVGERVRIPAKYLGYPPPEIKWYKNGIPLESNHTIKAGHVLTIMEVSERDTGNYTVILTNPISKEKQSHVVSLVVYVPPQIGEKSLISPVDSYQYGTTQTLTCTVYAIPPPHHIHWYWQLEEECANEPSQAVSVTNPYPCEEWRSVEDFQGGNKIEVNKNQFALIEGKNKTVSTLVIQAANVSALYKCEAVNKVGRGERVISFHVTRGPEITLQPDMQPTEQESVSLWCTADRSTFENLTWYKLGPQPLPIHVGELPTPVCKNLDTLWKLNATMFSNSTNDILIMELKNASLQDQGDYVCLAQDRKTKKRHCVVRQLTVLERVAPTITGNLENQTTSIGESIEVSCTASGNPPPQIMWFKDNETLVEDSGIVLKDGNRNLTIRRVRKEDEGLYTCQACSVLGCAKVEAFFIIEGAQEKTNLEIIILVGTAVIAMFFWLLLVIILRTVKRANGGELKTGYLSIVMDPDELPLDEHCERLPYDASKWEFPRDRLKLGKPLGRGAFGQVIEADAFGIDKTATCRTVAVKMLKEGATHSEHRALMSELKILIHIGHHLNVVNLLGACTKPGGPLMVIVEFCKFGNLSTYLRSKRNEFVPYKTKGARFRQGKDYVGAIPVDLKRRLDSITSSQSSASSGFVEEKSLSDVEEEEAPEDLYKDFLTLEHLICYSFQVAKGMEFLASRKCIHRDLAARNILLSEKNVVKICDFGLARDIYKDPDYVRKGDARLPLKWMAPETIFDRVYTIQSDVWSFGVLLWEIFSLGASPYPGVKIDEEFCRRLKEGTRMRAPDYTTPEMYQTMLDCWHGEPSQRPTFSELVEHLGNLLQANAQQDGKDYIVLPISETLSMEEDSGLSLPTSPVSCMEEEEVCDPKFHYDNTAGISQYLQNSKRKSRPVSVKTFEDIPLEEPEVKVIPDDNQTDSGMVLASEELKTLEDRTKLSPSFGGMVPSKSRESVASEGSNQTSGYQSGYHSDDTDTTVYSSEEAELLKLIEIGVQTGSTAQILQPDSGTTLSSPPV
Sequence of B-Raf (P15056 whole entry): as the sequence (P15056 whole entry V600E) above, with E600V counted along it
Sequence of PI3Kγ (P48736 whole entry): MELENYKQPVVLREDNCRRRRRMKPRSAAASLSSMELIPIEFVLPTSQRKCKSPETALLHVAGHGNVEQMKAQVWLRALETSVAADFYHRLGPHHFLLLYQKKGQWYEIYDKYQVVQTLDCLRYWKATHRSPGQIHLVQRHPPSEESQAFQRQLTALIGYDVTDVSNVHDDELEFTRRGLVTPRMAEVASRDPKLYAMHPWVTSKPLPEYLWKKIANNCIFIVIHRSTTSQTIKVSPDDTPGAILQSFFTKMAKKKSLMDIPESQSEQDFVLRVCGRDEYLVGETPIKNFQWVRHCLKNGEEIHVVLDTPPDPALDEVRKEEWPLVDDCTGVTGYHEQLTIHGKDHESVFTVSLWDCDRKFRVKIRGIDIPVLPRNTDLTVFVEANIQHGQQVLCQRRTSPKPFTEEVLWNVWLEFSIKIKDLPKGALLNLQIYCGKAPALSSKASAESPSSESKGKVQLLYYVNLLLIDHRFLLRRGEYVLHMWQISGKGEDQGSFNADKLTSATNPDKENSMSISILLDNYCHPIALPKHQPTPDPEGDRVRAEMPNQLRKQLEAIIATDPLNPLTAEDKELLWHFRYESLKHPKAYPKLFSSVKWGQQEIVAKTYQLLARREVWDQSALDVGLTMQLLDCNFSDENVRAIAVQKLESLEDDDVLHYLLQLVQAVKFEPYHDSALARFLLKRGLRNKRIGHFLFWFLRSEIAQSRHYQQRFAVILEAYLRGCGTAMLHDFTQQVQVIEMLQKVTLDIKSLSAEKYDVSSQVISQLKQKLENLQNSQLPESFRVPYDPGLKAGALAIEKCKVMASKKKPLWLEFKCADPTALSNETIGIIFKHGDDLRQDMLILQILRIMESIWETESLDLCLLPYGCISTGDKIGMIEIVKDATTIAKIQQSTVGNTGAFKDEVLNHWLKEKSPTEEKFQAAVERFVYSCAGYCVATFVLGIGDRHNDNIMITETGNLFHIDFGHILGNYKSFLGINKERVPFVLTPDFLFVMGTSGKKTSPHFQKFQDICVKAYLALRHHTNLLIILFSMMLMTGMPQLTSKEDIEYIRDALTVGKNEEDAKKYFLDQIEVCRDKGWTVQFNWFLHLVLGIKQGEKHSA

CCCS(=O)(=O)Nc1ccc(F)c(C(=O)c2c[nH]c3ncc(-c4ccc(Cl)cc4)cc23)c1F [P-1167 Form 2, Propane-1-sulfonic acid {3-[5-(4-chloro-phenyl)-1H-pyrrolo[2,3-b]pyridine-3-carbonyl]-2,4-difluoro-phenyl}-amide]
relative stability of polymorphic forms [1]: more stable polymorph

CCCS(=O)(=O)Nc1ccc(F)c(C(=O)c2c[nH]c3ncc(-c4cnc(OC)nc4)cc23)c1F [P-1496 arginine complex, propane-1-sulfonic acid {2,4-difluoro-3-[5-(2-methoxy-pyrimidin-5-yl)-1H-pyrrolo[2,3-b]pyridine-3-carbonyl]-phenyl}-amide]
AUC∞/dose [2, 5]: 3,620
Cmax/dose [2, 5]: 159 (ng/mL)/(mg/kg)
biopharmaceutical properties, comparison in words [2]: improved biopharmaceutical properties

CCCS(=O)(=O)Nc1ccc(F)c(C(=O)c2c[nH]c3ncc(-c4cnc(OC)nc4)cc23)c1F [P-1496 free base, Propane-1-sulfonic acid {2,4-difluoro-3-[5-(2-methoxy-pyrimidin-5-yl)-1H-pyrrolo[2,3-b]pyridine-3-carbonyl]-phenyl}-amide]
AUC∞/dose [2, 5]: 1,970
Cmax/dose [2, 5]: 106 (ng/mL)/(mg/kg)

CCCS(=O)(=O)Nc1ccc(F)c(C(=O)c2c[nH]c3ncc(-c4cnc(OC)nc4)cc23)c1F [P-1496 lysine complex, propane-1-sulfonic acid {2,4-difluoro-3-[5-(2-methoxy-pyrimidin-5-yl)-1H-pyrrolo[2,3-b]pyridine-3-carbonyl]-phenyl}-amide]
AUC∞/dose [2, 5]: 3,210
Cmax/dose [2, 5]: 283 (ng/mL)/(mg/kg)
AUC∞/dose [2, 6]: 2,750
Cmax/dose [2, 6]: 155 (ng/mL)/(mg/kg)
biopharmaceutical properties, comparison in words [2]: improved biopharmaceutical properties

CCCS(=O)(=O)Nc1ccc(F)c(C(=O)c2c[nH]c3ncc(-c4cccc(S(=O)(=O)NC)c4)cc23)c1F [P-2170, 3-{3-[2,6-Difluoro-3-(propane-1-sulfonylamino)-benzoyl]-1H-pyrrolo[2,3-b]pyridin-5-yl}-N-methyl-benzenesulfonamide]
IC50 (B-Raf V600E): ≤ 10 µM
IC50 (Fms): ≤ 10 µM
IC50 (Kdr): ≤ 10 µM
IC50 (Kit): ≤ 10 µM
IC50 (Src): ≤ 10 µM
IC50 (PI3Kα): ≤ 10 µM
IC50 (PI3Kδ): ≤ 10 µM

CCCS(=O)(=O)Nc1ccc(F)c(C(=O)c2c[nH]c3ncc(-c4cncc(S(C)(=O)=O)c4)cc23)c1F [P-2188]
IC50 (B-Raf): ≤ 10 µM
IC50 (B-Raf V600E): ≤ 10 µM
IC50 (Kdr): ≤ 10 µM
IC50 (PI3Kα): ≤ 10 µM
IC50 (PI3Kδ): ≤ 10 µM
IC50 (PI3Kγ): ≤ 10 µM

CCCS(=O)(=O)Nc1ccc(F)c(C(=O)c2c[nH]c3ncc(-c4ccc(C(N)=O)nc4)cc23)c1F [P-2220, 5-{3-[2,6-Difluoro-3-(propane-1-sulfonylamino)-benzoyl]-1H-pyrrolo[2,3-b]pyridin-5-yl}-pyridine-2-carboxylic acid amide]
IC50 (B-Raf): ≤ 10 µM
IC50 (B-Raf V600E): ≤ 10 µM
IC50 (Kdr): ≤ 10 µM
IC50 (Kit): ≤ 10 µM
IC50 (Src): ≤ 10 µM
IC50 (A-Raf): ≤ 10 µM
IC50 (C-Raf): ≤ 10 µM
IC50 (PI3Kα): ≤ 10 µM
IC50 (PI3Kγ): ≤ 10 µM
IC50 (MAP4K4): ≤ 10 µM

CCCS(=O)(=O)Nc1cccc(C(=O)c2c[nH]c3ncc(-c4cnc(OC)nc4)cc23)c1F [P-2407, Propane-1-sulfonic acid {2-fluoro-3-[5-(2-methoxy-pyrimidin-5-yl)-1H-pyrrolo[2,3-b]pyridine-3-carbonyl]-phenyl}-amide]
IC50 (B-Raf): ≤ 10 µM
IC50 (B-Raf V600E): ≤ 10 µM
IC50 (TrkA): ≤ 10 µM
IC50 (A-Raf): ≤ 10 µM
IC50 (C-Raf): ≤ 10 µM
IC50 (PI3Kα): ≤ 10 µM
IC50 (PI3Kγ): ≤ 10 µM
IC50 (MAP4K4): ≤ 10 µM

CCCS(=O)(=O)Nc1ccc(F)c(C(=O)c2c[nH]c3ncc(-c4ccc(Cl)cc4)cc23)c1F [arginine complex of P-1167, propane-1-sulfonic acid {3-[5-(4-chloro-phenyl)-1H-pyrrolo[2,3-b]pyridine-3-carbonyl]-2,4-difluoro-phenyl}-amide]
time of maximum absorbance in SGF [3]: approximately 200 minutes
maximum UV absorbance in SGF (dissolution) ([3]; versus form 2 polymorph free base): substantially greater than the free base
UV absorbance in SIF (dissolution) [4]: substantially higher absorbance in SIF than the free base
